2 compounds from US20260256780A1, “COMPOSITIONS FOR INDUCING RAS GTP HYDROLYSIS AND USES THEREOF” (Revolution Medicines, Inc., priority 2023, published 2026) can be followed below.

What all share (format): cell-based
Experiment [1] has as its system KRASG12D-mutant cell line AsPC-1. Kind of experiment: Cell viability (CellTiter-Glo) and HSA synergy model, AsPC-1. The procedure: (§1) Cell lines were seeded in complete growth media (RPMI-1640 or DMEM with 10% Fetal Bovine Serum and 1% Penicillin/Streptomycin) and allowed to adhere overnight in a 37° C. and 5% CO2 humidified incubator. The following day compounds were added at the indicate concentrations and incubated for a further 5 days. The number of viable cells in each well were assessed with Promega CellTiter-Glo® reagent according to manufacturer instructions. The cell viability was normalized to DMSO controls. The cell viability as a function of compound concentrations were plotted using GraphPad Prism analyzed using the Combenefit software package (Di Veroli G Y, Fornari C, Wang D, Mollard S, Bramhall J L, Richards F M, Jodrell D I. Combenefit: an interactive platform for the analysis and visualization of drug combinations. Bioinformatics. 2016 Sep. 15; 32(18):2866-8. doi: 10.1093/bioinformatics/btw230) to assess the synergy according to the highest single agent (HSA) synergy model (Borisy A A, Elliott P J, Hurst N W, Lee M S, Lehar J, Price E R, Serbedzija G, Zimmermann G R, Foley M A, Stockwell B R, Keith C T. Systematic discovery of multicomponent therapeutics. Proc Natl Acad Sci USA. 2003 Jun. 24; 100(13):7977-82. doi: 10.1073/pnas.1337088100)).
The KRASG12D-mutant cell line AsPC-1 was grown in RPMI-1640 supplemented with 10% fetal bovine serum and 1% penicillin/streptomycin. 2500 cells were seeded in 0.15 mL in the wells of a tissue culture-treated 96-well plate. After overnight incubation, compounds were added at the indicated concentration and incubated for a further 120 hours. Cell viability was assessed with Promega CellTiter Glo reagent, and the relative cell viability was plotted as a function of the concentration of (FIG. 4A and FIG. 4G) MRTX1133 or (FIG. 4D) MRTX-282 in combination with the indicated concentration to Compound A (FIG. 4A and FIG. 4D) or Compound D (FIG. 4G), both strong hydrolyzers. The synergy between (FIG. 4B and FIG. 4H) MRTX1133 or (FIG. 4E) MRTX-282 and Compound A (FIGS. 4B and 4E) or Compound D (FIG. 4H) was assessed by the HAS synergy model. Representative points of synergistic drug combination between (FIG. 4C and FIG. 4I) MRTX1133 or (FIG. 4F) MRTX-282 and Compound A (FIG. 4C and FIG. 4F) or Compound D (FIG. 4I) are highlighted.
The KRASG12D-mutant cell line AsPC-1 was grown in RPMI-1640 supplemented with 10% fetal bovine serum and 1% penicillin/streptomycin. 2000 cells were seeded in 0.15 mL in the wells of a tissue culture-treated 96-well plate. After overnight incubation, compounds were added at the indicated concentration and incubated for a further 120 hours. Cell viability was assessed with Promega CellTiter Glo reagent, and the relative cell viability was plotted as a function of the concentration of pan KRAS-IN-1 in combination with the indicated concentration to Compound D (FIG. 11A) or Compound C (FIG. 11D), both strong hydrolyzers. The synergy between pan KRAS-IN-1 and Compound D (FIG. 11B) or Compound C (FIG. 11E) was assessed by the HAS synergy model. Representative points of synergistic drug combination between pan KRAS-IN-1 and Compound D (FIG. 11C) or Compound C (FIG. 11F).

Experiment [2] has as its system KRASG12D-mutant cell line HPAC. Kind of experiment: Cell viability (CellTiter-Glo) and HSA synergy model, HPAC. The procedure:
as §1
The KRASG12D-mutant cell line HPAC was grown in RPMI-16 40 supplemented with 10% fetal bovine serum and 1% penicillin/streptomycin. […]

Experiment [3] relates to KRASG12D-mutant cell line Gp2D. Kind of experiment: Cell viability (CellTiter-Glo) and HSA synergy model, Gp2D. As for the experimental part: as §1
The KRASG12D-mutant cell line Gp2D was grown in RPMI-16 40 supplemented with 10% fetal bovine serum and 1% penicillin/streptomycin. […]

In experiment [4] the test system is KRASG12C-mutant cell line MiaPaCa2. Kind of experiment: Cell viability (CellTiter-Glo) and HSA synergy model, MiaPaCa2. As for the experimental part: as §1
The KRASG12C-mutant cell line MiaPaCa2 was grown in DMEM supplemented with 10% fetal bovine serum and 1% penicillin/streptomycin. […]

The target of the next experiment is T1, KRAS^G12C (Homo sapiens, UniProt P01116, G12C).
T1 construct: endogenous in cells; host or cells: MiaPaCa2
Nature of the experiment: Covalent modification (cross-linking) of KRAS^G12C by sotorasib in MiaPaCa2 cells, immunoblot. As for the experimental part:
The KRASG12C-mutant cell line MiaPaCa2 was grown in DMEM supplemented with 10% fetal bovine serum and 1% penicillin/streptomycin. 2500 cells were seeded in 0.15 mL in the wells of a tissue culture-treated 96-well plate. After overnight incubation, compounds were added at the indicated concentration and incubated for a further 120 hours. […] The density of the KRAS^G12C and KRAS^G12C-Soto. gel bands can be quantified, plotted as a function of time, and fit to a single-phase exponential model to get the rate constant for KRAS^G12C target engagement.

Experiment [5] has as its system KRASG12V-mutant cell line Capan-2. Kind of experiment: Cell viability (CellTiter-Glo) and HSA synergy model, Capan-2. Particulars: in combination with pan KRAS-IN-1, 120 hours. As for the experimental part: as §1
The KRASG12V-mutant cell line Capan-2 was grown in RPMI-1640 supplemented with 10% fetal bovine serum and 1% penicillin/streptomycin. […]

In experiment [6] the test system is KRASG12C-mutant cell line H358. Nature of the experiment: Cell viability (CellTiter-Glo) and HSA synergy model, H358. The following applies: in combination with pan KRAS-IN-1, 120 hours. The procedure:
as §1
The KRASG12C-mutant cell line H358 was grown in RPMI-1640 supplemented with 10% fetal bovine serum and 1% penicillin/streptomycin. […]

The test system of experiment [7] is KRASG12R-mutant cell line PSN1. Kind of experiment: Cell viability (CellTiter-Glo) and HSA synergy model, PSN1. Particulars: in combination with pan KRAS-IN-1, 120 hours. The procedure:
as §1
The KRASG12R-mutant cell line PSN1 was grown in RPMI-1640 supplemented with 10% fetal bovine serum and 1% penicillin/streptomycin. […]

[8] abbreviates: in combination with MRTX1133, 120 hours.
The mark [9] stands for this setting: in combination with MRTX-282, 120 hours.

Take `CCn1c(-c2cccnc2[C@H](C)OC)c2c3cc(ccc31)[C@@H]1C[C@H]1CC[C@H](NC(=O)[C@H]1[C@H](C)[C@@H]1C)C(=O)N1CCC[C@H](N1)C(=O)OCC(C)(C)C2` (atropisomer, axis not shown) [compound 1]: the “synergy on cell viability (HSA synergy model)” value (shortened to “synergy on cell viability”) in experiment [1] (AsPC-1, in combination with MRTX1133, 120 hours) was “synergistic”; in experiment [1] (AsPC-1, in combination with MRTX-282, 120 hours) it was “synergistic”; in experiment [2] (setting [8]), “synergistic”; in experiment [2] (setting [9]), “synergistic”; in experiment [3] (setting [8]) it was “synergistic”; in experiment [3] (setting [9]) it was “synergistic”. The “synergy on cell viability” value was “synergistic” in experiment [4] (MiaPaCa2, in combination with AMG510, 120 hours) and “synergistic” in experiment [4] (MiaPaCa2, in combination with MRTX849, 120 hours). The “cross-linking efficiency of sotorasib” value at KRAS^G12C (MiaPaCa2 cells, 1 μM sotorasib in combination with 1 μM or 10 μM Compound A vs sotorasib alone) was “increases in a concentration dependent manner”. Also, at KRAS^G12C (MiaPaca-2 cells, sotorasib in combination with 1 or 10 μM of Compound A), the “amount of covalently-modified KRAS^G12C (KRAS^G12C-Soto.)” value was “increased at each time point”. Besides, at KRAS^G12C (combination of sotorasib and compound A compared with sotorasib alone), the “rate of covalent engagement of KRAS^G12C (rate constant for target engagement)” value was “more rapid”.

With `CCn1c(-c2cc(N3CCN(C)CC3)cnc2[C@H](C)OC)c2c3cc(ccc31)CCCC[C@H](NC(=O)[C@H]1C[C@@H]1C)C(=O)N1CCC[C@H](N1)C(=O)OCC(C)(C)C2` (atropisomer, axis not shown) [compound 3], the “synergy on cell viability” value was “synergistic” in experiment [1] (AsPC-1, in combination with pan KRAS-IN-1, 120 hours); “synergistic” in experiment [5]; “synergistic” in experiment [6]; “synergistic” in experiment [7].
